Source: US12415794B2 (Edgewise Therapeutics, Inc., priority 2018, dated 2025)

Experiments:
[1] = biological target: T1, cardiac myofibrils (myosin ATPase); test: Cardiac Myofibril ATPase Assay (counter screen); assay type: biochemical; settings: myofibrils 1.0 mg/mL, KCl omitted
T1 construct: frozen myofibril pellets obtained from cardiac tissue; from tissue
Procedure: (§1) Overview: Myosin ATPase activity is assessed by using a coupled reaction system, in which ADP generated by the myosin ATPase function is coupled to the disappearance of NADH through the pyruvate kinase/lactate dehydrogenase (PK-LDH) system. ATPase activity produces ADP, which is used as a substrate for PK to produce pyruvate and regenerate ATP. The pyruvate is then used as a substrate by LDH to oxidize NADH to NAD+. The rate of the reaction is monitored through the time-dependent disappearance of NADH using absorbance at 340 nm. Inhibition of ATPase activity by the assayed compounds is indicated by a reduced rate of NADH loss, relative to vehicle-treated controls, over the experimental time window. To assess the selectivity of the assayed compounds for skeletal myofibrils, the compounds are counter-screened in cardiac myofibrils.
Example 13: Cardiac Myofibril ATPase Assay
Following example 11, the counter screen was done using frozen myofibril pellets obtained from cardiac tissue. The assay was done in the same manner as above, with the following notable exceptions: the final well concentration of myofibrils was 1.0 mg/mL and KCl was omitted from the recipe.
Compounds of Table 1 to 3 were tested, and results of the assays appear in Tables 5a-5c herein. A=IC50 is less than or equal to 10 μM; B=IC50 is greater than 10 μM and less than 100 μM; C=IC50 is greater than 100 μM; and […].

[2] = biological target: skeletal myofibrils (myosin ATPase); test: Skeletal Myofibril ATPase Assay; assay type: biochemical
Procedure: FIG. 7 depicts the buffer preparation procedures of Buffer A and Buffer B for the skeletal myofibril ATPase assay described in Example 12. Buffers were stored on ice until use.
Example 12: Skeletal Myofibril ATPase Assay
as §1
Materials: The following stock solutions and reagents were used in the Skeletal Myofibril ATPase Assay:
Stock Solutions of pCa buffer. Combine PIPES, CaCl2, and EGTA solutions with 70 mL of water. Adjust pH to 7.0 and bring final volume to 100 mL.
Skeletal Myofibril ATPase Assay Procedure: BSA, ATP, NADH, PEP, and DTT solutions were thawed at room temperature, then transferred to ice. Pellet-frozen myofibrils were transferred with approximately twice the required volume into a sufficiently large tube and capped. Myofibrils were thawed by rolling in a water bath for approximately 15 min at room temperature and cooled on ice. Buffers A and B were prepared by adjusting volumes as necessary for required number of wells and stored on ice. 0.5 μL of the compounds to be assayed were added into wells. 25 μL of Buffer A was dispensed into the wells, followed by 25 μL of Buffer B. The wells were measured for absorbance at 340 nm, using a kinetic protocol in which the wells are read every 1.5-2 min for 45 min. The slope of the data was approximated by subtracting the minimum absorbance value from the maximum value for each well. This was accomplished either in the SoftMax Pro software or in a spreadsheet program such as Excel. Using GraphPad Prism 8.0, the data was normalized by assigning a value of 100% to the 1% DMSO vehicle wells. Typically, a normalized 0% value was simply assigned to a (Max−Min) value of 0. The normalized data was fit to a Four Parameter Logistic sigmoidal equation, constraining the bottom to be 0 or greater. Compounds of Table 1, 2, and 3 were tested and results of the assay appear in Tables 4a-4c. A=IC50 is less than or equal to 10 μM; B=IC50 is greater than 10 μM and less than 100 μM; C=IC50 is greater than 100 μM.

T1 sequence (P12883 whole entry): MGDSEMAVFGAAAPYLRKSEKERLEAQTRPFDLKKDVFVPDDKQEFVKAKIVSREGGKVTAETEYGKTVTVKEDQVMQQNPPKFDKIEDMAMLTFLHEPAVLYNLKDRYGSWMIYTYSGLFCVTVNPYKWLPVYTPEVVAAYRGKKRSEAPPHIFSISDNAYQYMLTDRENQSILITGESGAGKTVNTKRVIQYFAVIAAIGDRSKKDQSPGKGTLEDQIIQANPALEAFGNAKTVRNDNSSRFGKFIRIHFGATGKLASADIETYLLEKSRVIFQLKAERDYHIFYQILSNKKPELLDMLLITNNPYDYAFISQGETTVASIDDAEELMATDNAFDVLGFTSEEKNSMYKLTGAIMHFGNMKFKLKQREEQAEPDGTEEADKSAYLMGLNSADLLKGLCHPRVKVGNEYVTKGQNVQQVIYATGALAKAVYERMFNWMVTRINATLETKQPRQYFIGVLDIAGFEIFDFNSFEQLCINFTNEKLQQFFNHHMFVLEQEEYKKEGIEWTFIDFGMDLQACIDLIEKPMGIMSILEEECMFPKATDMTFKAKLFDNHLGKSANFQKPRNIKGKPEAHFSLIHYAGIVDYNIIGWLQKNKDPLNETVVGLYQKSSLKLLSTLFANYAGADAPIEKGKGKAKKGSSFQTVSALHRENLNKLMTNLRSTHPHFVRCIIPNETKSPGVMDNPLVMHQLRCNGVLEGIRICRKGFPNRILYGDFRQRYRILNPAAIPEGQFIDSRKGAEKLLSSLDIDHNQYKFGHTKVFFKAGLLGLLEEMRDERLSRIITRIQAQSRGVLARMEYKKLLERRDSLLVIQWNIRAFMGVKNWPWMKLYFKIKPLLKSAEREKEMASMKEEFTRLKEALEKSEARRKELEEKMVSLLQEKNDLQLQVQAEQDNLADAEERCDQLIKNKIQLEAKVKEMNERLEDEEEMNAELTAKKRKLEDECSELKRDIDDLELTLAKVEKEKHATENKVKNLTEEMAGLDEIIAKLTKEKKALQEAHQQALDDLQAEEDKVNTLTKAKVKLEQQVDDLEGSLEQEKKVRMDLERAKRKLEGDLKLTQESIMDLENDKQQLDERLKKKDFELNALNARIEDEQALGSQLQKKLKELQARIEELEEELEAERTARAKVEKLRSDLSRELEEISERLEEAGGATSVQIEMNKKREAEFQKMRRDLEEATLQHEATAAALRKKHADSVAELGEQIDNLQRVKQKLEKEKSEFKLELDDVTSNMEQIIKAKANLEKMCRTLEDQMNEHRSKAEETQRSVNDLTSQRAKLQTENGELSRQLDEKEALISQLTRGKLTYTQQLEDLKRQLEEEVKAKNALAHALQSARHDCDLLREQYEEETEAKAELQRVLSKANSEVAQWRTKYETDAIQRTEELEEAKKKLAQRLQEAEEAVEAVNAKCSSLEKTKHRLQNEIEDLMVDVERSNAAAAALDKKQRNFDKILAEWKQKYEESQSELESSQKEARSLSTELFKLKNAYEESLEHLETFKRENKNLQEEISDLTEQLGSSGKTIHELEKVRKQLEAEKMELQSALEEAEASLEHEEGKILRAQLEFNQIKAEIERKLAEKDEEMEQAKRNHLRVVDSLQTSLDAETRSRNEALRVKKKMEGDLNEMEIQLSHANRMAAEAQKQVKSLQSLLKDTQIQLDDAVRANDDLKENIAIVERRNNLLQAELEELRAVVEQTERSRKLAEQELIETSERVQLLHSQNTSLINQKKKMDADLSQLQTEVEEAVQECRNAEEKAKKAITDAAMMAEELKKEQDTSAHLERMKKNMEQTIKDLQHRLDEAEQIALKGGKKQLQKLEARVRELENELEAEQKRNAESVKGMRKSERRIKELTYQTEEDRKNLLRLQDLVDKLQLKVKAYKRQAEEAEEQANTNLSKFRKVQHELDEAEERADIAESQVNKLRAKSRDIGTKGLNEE
T1 sequence (P08590 whole entry partner): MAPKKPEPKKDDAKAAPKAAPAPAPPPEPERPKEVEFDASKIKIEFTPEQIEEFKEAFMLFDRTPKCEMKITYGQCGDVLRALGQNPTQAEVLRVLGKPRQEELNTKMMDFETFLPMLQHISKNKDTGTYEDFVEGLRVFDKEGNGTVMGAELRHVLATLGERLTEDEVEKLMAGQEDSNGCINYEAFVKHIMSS
T1 sequence (P10916 whole entry partner): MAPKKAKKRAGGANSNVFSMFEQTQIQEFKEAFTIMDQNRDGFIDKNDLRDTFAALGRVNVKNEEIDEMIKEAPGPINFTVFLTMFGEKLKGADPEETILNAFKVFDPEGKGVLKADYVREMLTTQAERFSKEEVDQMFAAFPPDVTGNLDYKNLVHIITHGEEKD

IC50 ([1]; Table 5C) [µM] | IC50 ([2]; Table 4C) [µM] | SMILES | also measured
10 to 100 | < 10 | O=C(Cn1nc(-c2ccc3c(c2)OCCO3)ccc1=O)Nc1ccccc1F [IIIb-6, 2-(3-(2,3-dihydrobenzo[b][1,4]dioxin-6-yl)-6-oxopyridazin-1(6H)-yl)-N-(2-fluorophenyl)acetamide] | –
> 100 | < 10 | Cc1ccc(-c2ccc(=O)n(CC(=O)NCCc3ccccc3)n2)cc1 [IIIc-3, 2-(6-oxo-3-(p-tolyl)pyridazin-1(6H)-yl)-N-phenethylacetamide] | –
> 100 | 10 to 100 | CC(CCNC(=O)Cn1nc(-c2ccccc2)ccc1=O)c1ccccc1 (centres unmarked) [IIIc-53, 2-(6-oxo-3-phenylpyridazin-1(6H)-yl)-N-(3-phenylbutyl)acetamide] | –
> 100 | 10 to 100 | O=C(Cn1nc(-c2ccc3c(c2)OCCCO3)ccc1=O)NC1CCCCCC1 [IIIb-24, N-cycloheptyl-2-(3-(3,4-dihydro-2H-benzo[b][1,4]dioxepin-7-yl)-6-oxopyridazin-1(6H)-yl)acetamide] | –
– | – | O=C(Cn1nc(-c2ccc(OCC(F)(F)F)cc2)ccc1=O)NCc1ccc[nH]c1=O [II-26, N-((2-oxo-1,2-dihydropyridin-3-yl)methyl)-2-(6-oxo-3-(4-(2,2,2-trifluoroethoxy)phenyl)pyridazin-1(6H)-yl)acetamide] | IC50 ([1]; Table 5B): > 100 µM; IC50 ([2]; Table 4B): 10 to 100 µM
– | – | O=C(Cn1nc(-c2ccc(OC(F)F)nc2)ccc1=O)NC1CC(F)(F)C1 [Compound I-33] | IC50 ([1]; Table 5A): > 100 µM; IC50 ([2]; Table 4A): > 100 µM
> 100 | < 10 | O=C(Cn1nc(-c2ccc(Cl)cc2)ccc1=O)Nc1ccc2[nH]ccc2c1 [IIIc-22, 2-(3-(4-chlorophenyl)-6-oxopyridazin-1(6H)-yl)-N-(1H-indol-5-yl)acetamide] | –
– | – | CCNC(=O)Cn1nc(-c2ccc(OC3CC(F)(F)C3)nc2)ccc1=O [Compound I-75, 2-(3-(6-(3,3-difluorocyclobutoxy)pyridin-3-yl)-6-oxopyridazin-1(6H)-yl)-N-ethylacetamide] | IC50 ([1]; Table 5A): > 100 µM; IC50 ([2]; Table 4A): 10 to 100 µM
> 100 | 10 to 100 | COc1ccc(-c2ccc(=O)n(CC(=O)Nc3ccc(Cl)cc3Cl)n2)c(F)c1 [IIIb-35, N-(2,4-dichlorophenyl)-2-(3-(2-fluoro-4-methoxyphenyl)-6-oxopyridazin-1(6H)-yl)acetamide] | –
– | – | CCNC(=O)Cn1nc(-c2ccc(N3CCC34COC4)nc2)ccc1=O [Compound I-19, 2-(3-(6-(6-oxa-1-azaspiro[3.3]heptan-1-yl)pyridin-3-yl)-6-oxopyridazin-1(6H)-yl)-N-ethylacetamide] | IC50 ([1]; Table 5A): > 100 µM; IC50 ([2]; Table 4A): 10 to 100 µM
> 100 | < 10 | O=C(Cn1nc(-c2ccccc2)ccc1=O)Nc1ccc2[nH]ccc2c1 [IIIc-49, N-(1H-indol-5-yl)-2-(6-oxo-3-phenylpyridazin-1(6H)-yl)acetamide] | –
> 100 | 10 to 100 | COc1ccc(-c2ccc(=O)n(CC(=O)NCC(C)C)n2)cc1 [IIIb-29, N-isobutyl-2-(3-(4-methoxyphenyl)-6-oxopyridazin-1(6H)-yl)acetamide] | –
– | – | O=C(Cn1nc(-c2ccc(OC(F)F)cc2)ccc1=O)NCC(F)(F)F [II-11, 2-(3-(4-(difluoromethoxy)phenyl)-6-oxopyridazin-1(6H)-yl)-N-(2,2,2-trifluoroethyl) acetamide] | IC50 ([1]; Table 5B): > 100 µM; IC50 ([2]; Table 4B): 10 to 100 µM
– | – | O=C(Cn1nc(-c2ccc(OCC(F)(F)F)cc2)ccc1=O)NCc1ccncc1Cl [II-25, N-((3-chloropyridin-4-yl)methyl)-2-(6-oxo-3-(4-(2,2,2-trifluoroethoxy)phenyl)pyridazin-1(6H)-yl)acetamide] | IC50 ([1]; Table 5B): > 100 µM; IC50 ([2]; Table 4B): > 100 µM
– | – | CCNC(=O)Cn1nc(-c2ccc(SC)nc2)ccc1=O [Compound I-63, N-ethyl-2-(3-(6-(methylthio)pyridin-3-yl)-6-oxopyridazin-1(6H)-yl)acetamide] | IC50 ([1]; Table 5A): > 100 µM; IC50 ([2]; Table 4A): < 10 µM
10 to 100 | < 10 | O=C(Cn1nc(-c2ccc(Cl)cc2)ccc1=O)Nc1ccccc1Cl [IIIc-28, N-(2-chlorophenyl)-2-(3-(4-chlorophenyl)-6-oxopyridazin-1(6H)-yl)acetamide] | –
– | – | CCNC(=O)Cn1nc(-c2ccc(NC(C)=O)cc2)ccc1=O [II-2, 2-(3-(4-acetamidophenyl)-6-oxopyridazin-1(6H)-yl)-N-ethylacetamide] | IC50 ([1]; Table 5B): > 100 µM; IC50 ([2]; Table 4B): < 10 µM
> 100 | 10 to 100 | COc1ccc(-c2ccc(=O)n(CC(=O)NC3(c4ccccc4Cl)CC3)n2)cc1 [IIIa-20, N-(1-(2-chlorophenyl)cyclopropyl)-2-(3-(4-methoxyphenyl)-6-oxopyridazin-1(6H)-yl)acetamide] | –
– | – | CCNC(=O)Cn1nc(-c2ccc(OC3COC3)nc2)ccc1=O [Compound I-25, N-ethyl-2-(3-(6-(oxetan-3-yloxy)pyridin-3-yl)-6-oxopyridazin-1(6H)-yl)acetamide] | IC50 ([1]; Table 5A): > 100 µM; IC50 ([2]; Table 4A): > 100 µM
– | – | O=C(Cn1nc(-c2ccc(OC(F)F)cc2)ccc1=O)NCC1CCC1 [II-18, N-(cyclobutylmethyl)-2-(3-(4-(difluoromethoxy)phenyl)-6-oxopyridazin-1(6H)-yl)acetamide] | IC50 ([1]; Table 5B): > 100 µM; IC50 ([2]; Table 4B): 10 to 100 µM
– | – | CCNC(=O)Cn1nc(-c2ccc(OC(F)F)[n+]([O-])c2)ccc1=O [Compound I-65, 2-(difluoromethoxy)-5-(1-(2-(ethylamino)-2-oxoethyl)-6-oxo-1,6-dihydropyridazin-3-yl)pyridine 1-oxide] | IC50 ([1]; Table 5A): > 100 µM; IC50 ([2]; Table 4A): > 100 µM
– | – | CCNC(=O)Cn1nc(-c2ccc(NC3CCOCC3)nc2)ccc1=O [Compound I-45, N-ethyl-2-(6-oxo-3-(6-((tetrahydro-2H-pyran-4-pyran-4-yl)amino)pyridin-3-yl)pyridazin-1(6H)-yl)acetamide] | IC50 ([1]; Table 5A): > 100 µM; IC50 ([2]; Table 4A): > 100 µM
> 100 | 10 to 100 | COc1ccc(-c2ccc(=O)n(CC(=O)Nc3cc(OC)ccc3OC)n2)cc1 [IIIb-25, N-(2,5-dimethoxyphenyl)-2-(3-(4-methoxyphenyl)-6-oxopyridazin-1(6H)-yl)acetamide] | –
– | – | CCNC(=O)Cn1nc(-c2ccc(CC(F)(F)F)nc2)ccc1=O [Compound I-37, N-ethyl-2-(6-oxo-3-(6-(2,2,2-trifluoroethyl)pyridin-3-yl)pyridazin-1(6H)-yl)acetamide] | IC50 ([1]; Table 5A): > 100 µM; IC50 ([2]; Table 4A): 10 to 100 µM
> 100 | < 10 | COc1ccc(-c2ccc(=O)n(CC(=O)NC3Cc4ccccc4C3)n2)cc1 [IIIb-8, N-(2,3-dihydro-1H-inden-2-yl)-2-(3-(4-methoxyphenyl)-6-oxopyridazin-1(6H)-yl)acetamide] | –
> 100 | 10 to 100 | CCC1CCC(CNC(=O)Cn2nc(-c3ccccc3)ccc2=O)CC1 (centres unmarked) [IIIc-55, N-((4-ethylcyclohexyl)methyl)-2-(6-oxo-3-phenylpyridazin-1(6H)-yl)acetamide] | –
> 100 | < 10 | O=C(Cn1nc(-c2ccc(Cl)cc2)ccc1=O)Nc1ccccc1Cl [IIIc-38, N-(2-chlorophenyl)-2-(3-(4-chlorophenyl)-6-oxopyridazin-1(6H)-yl)acetamide] | –
– | – | CCCNC(=O)Cn1nc(-c2ccc(OC(F)F)cc2)ccc1=O [II-12, 2-(3-(4-(difluoromethoxy)phenyl)-6-oxopyridazin-1(6H)-yl)-N-propylacetamide] | IC50 ([1]; Table 5B): > 100 µM; IC50 ([2]; Table 4B): 10 to 100 µM
